In patent publication US20250346599A1, “TRICYCLIC PHTHALAZINONE PARP INHIBITORS AND METHODS OF USE” (Valo Health, Inc., priority 2022, published 2025):

How the values were obtained:
PARP1 enzyme = PARP1 enzyme (Homo sapiens (Human), UniProt P09874); test: PARP Mass Spectroscopy Assay (PARP1 enzymatic assay, nicotinamide detection); type: biochemical; settings: 5 nM PARP1, 5 uM β-NAD, 60 min at RT, NAM by mass spectrometry
Text: Materials and Reagents: The PARP1 enzyme was purchased from BPS Bioscience (cat #80501). Tris-HCl, pH 8.0 was purchased from Corning (cat #46-031-CM). Magnesium chloride was purchased from Thermo Fisher Scientific (previously Honeywell Fluka, cat #63020-1L). All other assay components, activated DNA (cat #D4522), core histones (cat #SRP6590), β-Nicotinamide adenine dinucleotide (β-NAD—cat #N8285), 3ABA PARP1 small molecule inhibitor (from the PARP1 Enzyme Activity Assay kit, cat #17-10149), Sodium Chloride (NaCl, cat #56546-1L), Triton X-100 (cat #93443), Dithiothreitol (DTT, cat #43816-250 ML) were all purchased from Millipore Sigma.
Assay Buffer: The assay buffer includes the following reagents: 50 mM Tris-HCl pH 8.0, 50 mM NaCl, 10 mM, MgCl2, 0.01% Triton X-100, and 1 mM DTT.
PARP1 enzymatic assays were performed in 384-well plates in a total volume of 20 μL in the assay buffer. For concentration response curves, compounds were serially diluted 3-fold from 2 mM highest concentration […] to generate a 10-point curve, and 125 nL was transferred to the assay plate using the Echo acoustic dispenser for a final concentration range of 26.6 μM to […] in 10 μL reaction. Five microliters of 10 nM PARP1 enzyme and 100 nM core histones (2×) mix were added to the assay plates and pre-incubated for 30 mins at room temperature (RT). The reaction was initiated by the addition of a 5 μL of 10 uM β-NAD plus 0.02 mg/mL activated DNA (2×) mix. The reaction is incubated for 60 min at RT. The final concentration of the PARP1 enzyme and substrate concentrations were 5 nM and 5 uM, respectively. The positive control (high signal) and negative control (low signal) wells had 125 nL of DMSO in place of compounds. After the incubation is complete, the reaction is stopped by the addition of 10 μL of 10 uM of the 3ABA PARP1 inhibitor, incubated for 5 min at RT, and placed in the −80 C freezer for shipment to the Valo Health site in Branford Connecticut where mass spectrometry will be used to directly detect quantities of nicotinamide (NAM).
The percent inhibition of enzyme activity was calculated according to the following equation: […]
The values of Ssample, Shigh, and Slow in the equation refer to the NAM concentration detected in the assay wells, high control wells, and low control wells, respectively. To determine inhibitor IC50 values, % inhibition of the CRCs (concentration response curves) was fitted to the standard single-site four-parameter logistic equation.

[1] = molecular target: human MDR1 (P-glycoprotein; P-gp) (Homo sapiens (Human), UniProt P08183); test: bi-directional MDCK-MDR1 permeability assay; type: in vitro ADME; settings: for Papp A→B: dog; for Papp A→B / efflux ratio: MDCK-MDR1; for Papp A→B / MDCK-MDR1 Papp A→B (10^−6 cm/s): apical to basolateral direction; for efflux ratio: human, read-out: MDCK-MDR1 ER; for efflux ratio / MDCK-MDR1 ER: efflux ratio B→A/A→B
Chain of human MDR1 (P-glycoprotein; P-gp) (P08183 whole entry): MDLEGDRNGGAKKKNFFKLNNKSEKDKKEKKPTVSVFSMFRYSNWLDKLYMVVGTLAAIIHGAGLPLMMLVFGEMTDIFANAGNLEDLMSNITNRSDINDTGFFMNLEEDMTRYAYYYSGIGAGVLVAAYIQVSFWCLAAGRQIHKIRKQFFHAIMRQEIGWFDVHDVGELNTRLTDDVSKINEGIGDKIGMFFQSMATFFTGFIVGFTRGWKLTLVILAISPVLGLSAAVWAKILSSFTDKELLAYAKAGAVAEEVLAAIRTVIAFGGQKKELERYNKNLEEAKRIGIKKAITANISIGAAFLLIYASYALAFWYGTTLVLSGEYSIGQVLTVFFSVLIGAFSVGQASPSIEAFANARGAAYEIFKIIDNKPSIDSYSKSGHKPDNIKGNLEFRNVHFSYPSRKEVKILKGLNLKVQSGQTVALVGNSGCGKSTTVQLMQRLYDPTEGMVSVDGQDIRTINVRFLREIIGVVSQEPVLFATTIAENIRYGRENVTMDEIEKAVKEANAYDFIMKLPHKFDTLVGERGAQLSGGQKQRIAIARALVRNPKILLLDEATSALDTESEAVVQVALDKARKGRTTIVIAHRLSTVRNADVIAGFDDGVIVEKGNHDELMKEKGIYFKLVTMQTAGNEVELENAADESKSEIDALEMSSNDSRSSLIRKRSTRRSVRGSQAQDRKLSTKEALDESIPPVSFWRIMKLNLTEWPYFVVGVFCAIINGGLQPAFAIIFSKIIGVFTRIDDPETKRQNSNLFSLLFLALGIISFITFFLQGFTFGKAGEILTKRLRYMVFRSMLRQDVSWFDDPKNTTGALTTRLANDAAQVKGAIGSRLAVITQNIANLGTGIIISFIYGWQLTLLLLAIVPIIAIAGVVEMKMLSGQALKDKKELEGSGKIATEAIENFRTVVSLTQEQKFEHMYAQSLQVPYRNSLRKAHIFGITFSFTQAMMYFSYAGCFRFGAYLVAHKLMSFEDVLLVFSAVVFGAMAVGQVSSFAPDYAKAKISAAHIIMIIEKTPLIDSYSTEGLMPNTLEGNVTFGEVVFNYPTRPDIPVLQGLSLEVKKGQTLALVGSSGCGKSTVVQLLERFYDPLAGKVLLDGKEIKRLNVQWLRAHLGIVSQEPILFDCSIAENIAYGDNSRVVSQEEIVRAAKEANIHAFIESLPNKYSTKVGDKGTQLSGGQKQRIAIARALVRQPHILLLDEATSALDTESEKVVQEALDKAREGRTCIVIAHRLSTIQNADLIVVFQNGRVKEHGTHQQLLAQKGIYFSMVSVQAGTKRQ
Text: The bi-directional assay containing a Mandin Darby canine kidney (MDCK) cell line transfected with human MDR1 gene (P-glycoprotein; P-gp) designed to overexpress the MDR1 efflux transporter, a major efflux transporter at the blood brain barrier (BBB), uses an established method that measures the rate of flux of a compound across polarized cell monolayers. As well appreciated in the art, the data generated from the MDCK-MDR1 permeability assay may be used to predict in vivo absorption of drugs. The bi-directional MDCK-MDR1 permeability assay can identify and quantify levels of active efflux. Screening compounds in both the apical to basolateral direction (A→B) and basolateral to apical direction (B→A) across the cell monolayer provides a ratio of B→A/A→B (efflux ratio; “ER”). Unlike the Caco-2 assay, the MDCK-MDR1 assay is not subject to potential efflux interference by breast cancer resistance protein (BCRP). […] The data may further be used to predict blood brain barrier (BBB) permeability via calculation from the data of log(permeability-surface area product) (“log PS”), well-understood to be predictive of the in vivo log([brain concentration]/[plasma concentration]).

Chain of PARP1 enzyme (P09874 whole entry): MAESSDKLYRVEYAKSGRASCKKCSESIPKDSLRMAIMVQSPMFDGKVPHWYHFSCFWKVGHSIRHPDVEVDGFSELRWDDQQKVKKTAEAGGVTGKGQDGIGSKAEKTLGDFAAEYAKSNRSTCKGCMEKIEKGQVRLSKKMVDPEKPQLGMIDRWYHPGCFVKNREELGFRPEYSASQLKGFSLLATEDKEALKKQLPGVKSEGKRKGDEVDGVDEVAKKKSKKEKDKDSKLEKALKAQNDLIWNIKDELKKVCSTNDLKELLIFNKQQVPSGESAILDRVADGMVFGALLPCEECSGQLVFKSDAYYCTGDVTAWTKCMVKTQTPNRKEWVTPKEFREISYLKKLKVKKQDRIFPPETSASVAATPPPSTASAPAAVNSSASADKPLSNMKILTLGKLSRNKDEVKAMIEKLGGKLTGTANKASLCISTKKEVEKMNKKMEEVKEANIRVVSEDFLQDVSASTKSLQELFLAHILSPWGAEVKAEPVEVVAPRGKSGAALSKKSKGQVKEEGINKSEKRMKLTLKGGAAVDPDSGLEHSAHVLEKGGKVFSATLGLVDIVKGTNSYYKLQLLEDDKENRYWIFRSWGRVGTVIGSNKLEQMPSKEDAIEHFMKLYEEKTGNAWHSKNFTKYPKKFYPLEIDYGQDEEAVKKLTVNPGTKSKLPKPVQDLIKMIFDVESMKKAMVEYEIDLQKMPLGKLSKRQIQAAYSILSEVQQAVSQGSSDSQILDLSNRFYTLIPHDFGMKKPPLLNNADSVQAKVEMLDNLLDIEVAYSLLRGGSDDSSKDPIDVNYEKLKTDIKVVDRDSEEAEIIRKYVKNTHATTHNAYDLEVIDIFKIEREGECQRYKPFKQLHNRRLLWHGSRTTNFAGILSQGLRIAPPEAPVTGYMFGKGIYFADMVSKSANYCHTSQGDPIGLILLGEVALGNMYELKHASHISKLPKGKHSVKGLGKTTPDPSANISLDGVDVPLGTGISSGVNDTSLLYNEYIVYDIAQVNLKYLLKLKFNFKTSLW

SMILES	IC50 (PARP1 enzyme) [nM]	Papp A→B [1] [×10⁻⁶ cm/s]	efflux ratio [1]	MDCK-MDR1 Papp A→B (10^−6 cm/s) [1]	MDCK-MDR1 ER [1]
CN1CCC([C@H]2Nc3cc(F)cc4c(=O)[nH]nc(c34)[C@H]2c2ccc(F)cc2F)CC1 [Compound 0110B, (8R,9S)-9-(2,4-difluorophenyl)-5-fluoro-8-(1-methylpiperidin-4-yl)-2,7,8,9-tetrahydro-3H-pyrido[4,3,2-de]phthalazin-3-one]	45	0.498	30.4	–	–
O=c1[nH]nc2c3c(cc(F)cc13)N[C@H]([C@@H]1CCOC1)[C@H]2c1ccc(F)cc1F [Compound 0115B]	190	–	–	9.05 10^−6 cm/s	2.04
O=c1[nH]nc2c3c(cc(F)cc13)NC[C@H]2c1ccccc1Cl [Compound 0120A, (R)-9-(2-chlorophenyl)-5-fluoro-2,7,8,9-tetrahydro-3H-pyrido[4,3,2-de]phthalazin-3-one]	87	12.9	0.655	–	–
C[C@H]1Nc2cc(F)cc3c(=O)[nH]nc(c23)[C@@H]1c1ccc(C#N)cc1F [Compound 0194A]	2	–	–	6.96 10^−6 cm/s	2.22
C[C@H]1Nc2cc(F)cc3c(=O)[nH]nc(c23)[C@@H]1c1ccc(Cl)cc1F [Compound 0196A]	9	–	–	13 10^−6 cm/s	0.537
CC(C)[C@H]1Nc2cc(F)cc3c(=O)[nH]nc(c23)[C@H]1c1ccccc1Cl [Compound 0222B]	18	–	–	9.59 10^−6 cm/s	0.92
O=c1[nH]nc2c3c(cc(F)cc13)N[C@@H](C1CCC(F)(F)CC1)[C@@H]2c1ccccc1Cl [Compound 0213B]	130	–	–	4.93 10^−6 cm/s	3.33
C[C@H]1Nc2cc(F)cc3c(=O)[nH]nc(c23)[C@@H]1c1ccc(C#N)c(F)c1 [Compound 0193A]	24	–	–	5.83 10^−6 cm/s	2.63
O=c1[nH]nc2c3c(cc(F)cc13)NC[C@@H]2c1ccccc1Cl [Compound 0120B, (S)-9-(2-chlorophenyl)-5-fluoro-2,7,8,9-tetrahydro-3H-pyrido[4,3,2-de]phthalazin-3-one]	47	13.3	0.612	–	–
C[C@H]1Nc2cc(F)cc3c(=O)[nH]nc(c23)[C@@H]1c1ccc(F)cc1F [Compound 0174A, (8R,9R)-9-(2,4-difluorophenyl)-5-fluoro-8-methyl-2,7,8,9-tetrahydro-3H-pyrido[4,3,2-de]phthalazin-3-one]	36	14	0.532	–	–
CN1CCC([C@@H]2Nc3cc(F)cc4c(=O)[nH]nc(c34)[C@H]2c2ccccc2Cl)CC1 [Compound 0116B, (8S,9S)-9-(2-chlorophenyl)-5-fluoro-8-(1-methylpiperidin-4-yl)-2,7,8,9-tetrahydro-3H-pyrido[4,3,2-de]phthalazin-3-one]	123	0.471	30.8	–	–
O=c1[nH]nc2c3c(cc(F)cc13)NC[C@H]2c1ccccn1 [Compound 0211A]	27	–	–	9.25 10^−6 cm/s	2.67
O=c1[nH]nc2c3c(cc(F)cc13)NCC2c1ccc(Cl)cc1F (stereo not drawn) [Compound 0189-6]	41	–	–	10.6 10^−6 cm/s	0.59
O=c1[nH]nc2c3c(cc(F)cc13)NCC2c1ccc(F)cc1F (stereo not drawn) [Compound 0114-5, 9-(2,4-difluorophenyl)-5-fluoro-2,7,8,9-tetrahydro-3H-pyrido[4,3,2-de]phthalazin-3-one]	32	16.1	0.995	–	–
C[C@@H]1Nc2cc(F)cc3c(=O)[nH]nc(c23)[C@@H]1[C@H]1CCCCN1C [Compound 0199C]	38	–	–	0.506 10^−6 cm/s	17.9
O=c1[nH]nc2c3c(cc(F)cc13)NCC2c1ccc(Cl)c(F)c1 (stereo not drawn) [Compound 0188-5, 9-(4-chloro-3-fluorophenyl)-5-fluoro-2,7,8,9-tetrahydro-3H-pyrido[4,3,2-de]phthalazin-3-one]	42	11.7	0.522	–	–
N#Cc1ccc([C@H]2CNc3cc(F)cc4c(=O)[nH]nc2c34)c(F)c1 [Compound 0187B]	41	–	–	8.56 10^−6 cm/s	1.67
C[C@H]1Nc2cc(F)cc3c(=O)[nH]nc(c23)[C@@H]1c1ccccc1Cl [Compound 0172A, (8R,9R)-9-(2-chlorophenyl)-5-fluoro-8-methyl-2,7,8,9-tetrahydro-3H-pyrido[4,3,2-de]phthalazin-3-one]	10	11	0.658	–	–
CC(C)[C@@H]1Nc2cc(F)cc3c(=O)[nH]nc(c23)[C@H]1c1c(F)cc(F)cc1F [Compound 0221B]	19	–	–	8.48 10^−6 cm/s	1.15
O=c1[nH]nc2c3c(cc(F)cc13)NC[C@H]2c1ccc(Cl)c(F)c1 [Compound 0188A, (R)-9-(4-chloro-3-fluorophenyl)-5-fluoro-2,7,8,9-tetrahydro-3H-pyrido[4,3,2-de]phthalazin-3-one]	28	11.7	0.541	–	–
O=c1[nH]nc2c3c(cc(F)cc13)N[C@H](C1CCOCC1)[C@H]2c1ccccc1Cl [Compound 0210B, (11R,12R)-12-(2-chlorophenyl)-7-fluoro-11-(oxan-4-yl)-2,3,10-triazatricyclo[7.3.1.0^{5,13}]trideca-1,5(13),6,8-tetraen-4-one]	142	–	–	2.27 10^−6 cm/s	9.91
O=c1[nH]nc2c3c(cc(F)cc13)NC[C@@H]2c1ccc(Cl)cc1F [Compound 0189B]	29	–	–	15.6 10^−6 cm/s	0.538
O=c1[nH]nc2c3c(cc(F)cc13)N[C@@H]([C@@H]1CCOC1)[C@@H]2c1ccccc1Cl [Compound 0121D]	43	–	–	3.66 10^−6 cm/s	5.77
O=c1[nH]nc2c3c(cc(F)cc13)N[C@@H](C1CCOCC1)[C@@H]2c1ccccc1Cl [Compound 0210A, (11S,12S)-12-(2-chlorophenyl)-7-fluoro-11-(oxan-4-yl)-2,3,10-triazatricyclo[7.3.1.0^{5,13}]trideca-1,5(13),6,8-tetraen-4-one]	106	–	–	2.91 10^−6 cm/s	6.97
